Assay results from PubChem BioAssay (NCI).
Values joined by “and” are separate entries in the source; they are usually repeats but may differ in a detail not shown here. Equal entries are not always repeated.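 The compound was tested at five concentrations on cells cultured in 96-well plates, with a 48-hour exposure period. GI50: concentration for 50% inhibition of growth. TGI: concentration producing complete growth inhibition.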

Tested on: MCF7 breast
Assay: DTP human tumour cell line panel, 48 h

SMILES	GI50	TGI
C=CC(=O)Nc1cccc(Nc2nc(Nc3ccc(OCCOC)cc3)ncc2F)c1	2.54 µM	17.2 µM
CNC(=O)c1cn(C[C@H](F)CCc2ccc(NC(=O)Cc3cc(OC4CC(F)(F)C4)cc(C)n3)nn2)nn1	> 100 µM	> 100 µM
COC(=O)C(Cc1ccccc1)N/C=C\C(=O)c1ccc(Cl)cc1 (stereo unspecified)	26.2 µM	66.4 µM
C[C@H]1CCC/C=C/[C@@H]2C[C@H](N)C[C@H]2[C@H](O)/C=C/C(=O)O1	> 100 µM	> 100 µM
CC1=C(C)C(=O)O[C@@H]([C@](C)(O)[C@]2(O)CC[C@@]3(O)[C@@H]4C[C@H]5O[C@]56CC=CC(=O)[C@]6(C)[C@H]4CC[C@]23C)C1	0.0668 µM	2.8 µM
CNC(=O)c1ccc(-c2cnc3ncc(Cc4ccc5ncccc5c4)n3n2)cc1F	> 100 µM	> 100 µM
COc1ccc2c(-c3cc4ccccc4o3)cc(=O)oc2c1		> 100 µM
O=C(Nc1cc(-c2ccccc2)[nH]n1)c1ccc(Cl)cc1	> 100 µM	> 100 µM
CCCSc1cc(Cl)nc(N)n1	> 100 µM	> 100 µM
CN1CCN(Cc2ccc(NC(=O)c3ccc(C(C)(C)C)c(C#Cc4cnc5cccnn45)c3)cc2C(F)(F)F)CC1	1.82 µM	3.46 µM
C=CCOc1c(Br)cc(Br)cc1Br	9.32 µM	> 100 µM
CC(=O)n1c(-c2ccc(Cl)cc2)nc2c(c1=O)C(c1ccc(Cl)cc1)c1sc3c(Cl)cccc3c1O2 (stereo unspecified)	0.282 µM	1.47 µM
COc1cc(/C=C2\CC3C4CC=C5CC(N6CCCC6)CC[C@]5(C)C4CC[C@]3(C)C2OC(C)=O)ccc1OCCN1CCCC1 (stereo partly specified)	1.62 µM	3.17 µM
CN(C)CCNC(=O)Nc1c(C#N)[n+]([O-])c2cc(Cl)c(Cl)cc2[n+]1[O-]	18.5 µM	> 100 µM
CS(=O)(=O)Nc1ccc(-c2ccc3c(NC(=O)C4CC4)n[nH]c3c2)cc1	> 23.2 µM	> 25 µM
COCC(=O)OC1CCn2c1nc1c2C(=O)C(C)=C(NC(C)=O)C1=O (stereo unspecified)		3.53 µM and 3.75 µM
COc1ccc(C2C(C#N)=C(N)OC3=C2CCCc2ccc(F)cc23)cc1OC (stereo unspecified)	28.1 µM	> 77.7 µM
COc1ccc2c(c1)C=CC(C#N)N2C(=O)c1ccccc1 (stereo unspecified)	< 0.01 µM	> 100 µM

Tested on: SNB-75 CNS
Assay: DTP human tumour cell line panel, 48 h

SMILES	GI50	TGI
C=CC(=O)Nc1cccc(Nc2nc(Nc3ccc(OCCOC)cc3)ncc2F)c1	0.341 µM	2.44 µM
CNC(=O)c1cn(C[C@H](F)CCc2ccc(NC(=O)Cc3cc(OC4CC(F)(F)C4)cc(C)n3)nn2)nn1	> 100 µM	> 100 µM
COC(=O)C(Cc1ccccc1)N/C=C\C(=O)c1ccc(Cl)cc1 (stereo unspecified)	> 100 µM	> 100 µM
C[C@H]1CCC/C=C/[C@@H]2C[C@H](N)C[C@H]2[C@H](O)/C=C/C(=O)O1	39.9 µM	> 100 µM
CC1=C(C)C(=O)O[C@@H]([C@](C)(O)[C@]2(O)CC[C@@]3(O)[C@@H]4C[C@H]5O[C@]56CC=CC(=O)[C@]6(C)[C@H]4CC[C@]23C)C1	0.0322 µM	1.2 µM
CNC(=O)c1ccc(-c2cnc3ncc(Cc4ccc5ncccc5c4)n3n2)cc1F	12.7 µM	54.8 µM
COc1ccc2c(-c3cc4ccccc4o3)cc(=O)oc2c1		47.6 µM
O=C(Nc1cc(-c2ccccc2)[nH]n1)c1ccc(Cl)cc1	17.7 µM	90.3 µM
CCCSc1cc(Cl)nc(N)n1	90.1 µM	> 100 µM
CN1CCN(Cc2ccc(NC(=O)c3ccc(C(C)(C)C)c(C#Cc4cnc5cccnn45)c3)cc2C(F)(F)F)CC1	1.59 µM	3.09 µM
C=CCOc1c(Br)cc(Br)cc1Br	20.2 µM	> 100 µM
CC(=O)n1c(-c2ccc(Cl)cc2)nc2c(c1=O)C(c1ccc(Cl)cc1)c1sc3c(Cl)cccc3c1O2 (stereo unspecified)	0.454 µM	5.88 µM
COc1cc(/C=C2\CC3C4CC=C5CC(N6CCCC6)CC[C@]5(C)C4CC[C@]3(C)C2OC(C)=O)ccc1OCCN1CCCC1 (stereo partly specified)	2.51 µM	5.09 µM
CN(C)CCNC(=O)Nc1c(C#N)[n+]([O-])c2cc(Cl)c(Cl)cc2[n+]1[O-]	14.7 µM	> 100 µM
CS(=O)(=O)Nc1ccc(-c2ccc3c(NC(=O)C4CC4)n[nH]c3c2)cc1	> 25 µM	> 25 µM
COCC(=O)OC1CCn2c1nc1c2C(=O)C(C)=C(NC(C)=O)C1=O (stereo unspecified)		14.8 µM
COc1ccc(C2C(C#N)=C(N)OC3=C2CCCc2ccc(F)cc23)cc1OC (stereo unspecified)	34.7 µM	> 84.6 µM
COc1ccc2c(c1)C=CC(C#N)N2C(=O)c1ccccc1 (stereo unspecified)	< 0.01 µM	> 100 µM

Tested on: RPMI-8226 leukemia
Assay: DTP human tumour cell line panel, 48 h

SMILES	GI50	TGI
C=CC(=O)Nc1cccc(Nc2nc(Nc3ccc(OCCOC)cc3)ncc2F)c1	3.28 µM	23.3 µM
CNC(=O)c1cn(C[C@H](F)CCc2ccc(NC(=O)Cc3cc(OC4CC(F)(F)C4)cc(C)n3)nn2)nn1	5.65 µM	> 100 µM
COC(=O)C(Cc1ccccc1)N/C=C\C(=O)c1ccc(Cl)cc1 (stereo unspecified)	36.7 µM	> 100 µM
C[C@H]1CCC/C=C/[C@@H]2C[C@H](N)C[C@H]2[C@H](O)/C=C/C(=O)O1	> 100 µM	> 100 µM
CC1=C(C)C(=O)O[C@@H]([C@](C)(O)[C@]2(O)CC[C@@]3(O)[C@@H]4C[C@H]5O[C@]56CC=CC(=O)[C@]6(C)[C@H]4CC[C@]23C)C1	0.0593 µM	1.78 µM
CNC(=O)c1ccc(-c2cnc3ncc(Cc4ccc5ncccc5c4)n3n2)cc1F	> 100 µM	> 100 µM
COc1ccc2c(-c3cc4ccccc4o3)cc(=O)oc2c1		> 100 µM
O=C(Nc1cc(-c2ccccc2)[nH]n1)c1ccc(Cl)cc1	> 100 µM	> 100 µM
CCCSc1cc(Cl)nc(N)n1	> 100 µM	> 100 µM
CN1CCN(Cc2ccc(NC(=O)c3ccc(C(C)(C)C)c(C#Cc4cnc5cccnn45)c3)cc2C(F)(F)F)CC1	2.54 µM	6.11 µM
C=CCOc1c(Br)cc(Br)cc1Br	16.2 µM	> 100 µM
CC(=O)n1c(-c2ccc(Cl)cc2)nc2c(c1=O)C(c1ccc(Cl)cc1)c1sc3c(Cl)cccc3c1O2 (stereo unspecified)	0.504 µM	4.75 µM
COc1cc(/C=C2\CC3C4CC=C5CC(N6CCCC6)CC[C@]5(C)C4CC[C@]3(C)C2OC(C)=O)ccc1OCCN1CCCC1 (stereo partly specified)	1.67 µM	3.82 µM
CN(C)CCNC(=O)Nc1c(C#N)[n+]([O-])c2cc(Cl)c(Cl)cc2[n+]1[O-]	8.65 µM	> 100 µM
CS(=O)(=O)Nc1ccc(-c2ccc3c(NC(=O)C4CC4)n[nH]c3c2)cc1	13.7 µM	> 25 µM
COCC(=O)OC1CCn2c1nc1c2C(=O)C(C)=C(NC(C)=O)C1=O (stereo unspecified)		4.76 µM and 9.5 µM
COc1ccc(C2C(C#N)=C(N)OC3=C2CCCc2ccc(F)cc23)cc1OC (stereo unspecified)	7.46 µM	22.8 µM
COc1ccc2c(c1)C=CC(C#N)N2C(=O)c1ccccc1 (stereo unspecified)	< 0.01 µM	> 100 µM

Tested on: SK-OV-3 ovarian
Assay: DTP human tumour cell line panel, 48 h

SMILES	GI50	TGI
C=CC(=O)Nc1cccc(Nc2nc(Nc3ccc(OCCOC)cc3)ncc2F)c1	0.533 µM	3.17 µM
CNC(=O)c1cn(C[C@H](F)CCc2ccc(NC(=O)Cc3cc(OC4CC(F)(F)C4)cc(C)n3)nn2)nn1	> 100 µM	> 100 µM
COC(=O)C(Cc1ccccc1)N/C=C\C(=O)c1ccc(Cl)cc1 (stereo unspecified)	26.7 µM	92.4 µM
C[C@H]1CCC/C=C/[C@@H]2C[C@H](N)C[C@H]2[C@H](O)/C=C/C(=O)O1	> 100 µM	> 100 µM
CC1=C(C)C(=O)O[C@@H]([C@](C)(O)[C@]2(O)CC[C@@]3(O)[C@@H]4C[C@H]5O[C@]56CC=CC(=O)[C@]6(C)[C@H]4CC[C@]23C)C1	0.909 µM	18.8 µM
CNC(=O)c1ccc(-c2cnc3ncc(Cc4ccc5ncccc5c4)n3n2)cc1F	> 100 µM	> 100 µM
COc1ccc2c(-c3cc4ccccc4o3)cc(=O)oc2c1		52.1 µM
O=C(Nc1cc(-c2ccccc2)[nH]n1)c1ccc(Cl)cc1	3.67 µM	> 100 µM
CCCSc1cc(Cl)nc(N)n1	> 100 µM	> 100 µM
CN1CCN(Cc2ccc(NC(=O)c3ccc(C(C)(C)C)c(C#Cc4cnc5cccnn45)c3)cc2C(F)(F)F)CC1	11.3 µM	24.4 µM
C=CCOc1c(Br)cc(Br)cc1Br	55.5 µM	> 100 µM
CC(=O)n1c(-c2ccc(Cl)cc2)nc2c(c1=O)C(c1ccc(Cl)cc1)c1sc3c(Cl)cccc3c1O2 (stereo unspecified)	0.352 µM	1.95 µM
COc1cc(/C=C2\CC3C4CC=C5CC(N6CCCC6)CC[C@]5(C)C4CC[C@]3(C)C2OC(C)=O)ccc1OCCN1CCCC1 (stereo partly specified)	3.28 µM	8.92 µM
CN(C)CCNC(=O)Nc1c(C#N)[n+]([O-])c2cc(Cl)c(Cl)cc2[n+]1[O-]	21.1 µM	97.7 µM
CS(=O)(=O)Nc1ccc(-c2ccc3c(NC(=O)C4CC4)n[nH]c3c2)cc1	13.7 µM	> 25 µM
COCC(=O)OC1CCn2c1nc1c2C(=O)C(C)=C(NC(C)=O)C1=O (stereo unspecified)		34.3 µM
COc1ccc(C2C(C#N)=C(N)OC3=C2CCCc2ccc(F)cc23)cc1OC (stereo unspecified)	25.4 µM	57.7 µM
COc1ccc2c(c1)C=CC(C#N)N2C(=O)c1ccccc1 (stereo unspecified)	< 0.01 µM	> 100 µM

Tested on: COLO 205 colon
Assay: DTP human tumour cell line panel, 48 h

SMILES	GI50	TGI
C=CC(=O)Nc1cccc(Nc2nc(Nc3ccc(OCCOC)cc3)ncc2F)c1	2.39 µM	11 µM
CNC(=O)c1cn(C[C@H](F)CCc2ccc(NC(=O)Cc3cc(OC4CC(F)(F)C4)cc(C)n3)nn2)nn1	> 100 µM	> 100 µM
COC(=O)C(Cc1ccccc1)N/C=C\C(=O)c1ccc(Cl)cc1 (stereo unspecified)	32.5 µM	> 100 µM
C[C@H]1CCC/C=C/[C@@H]2C[C@H](N)C[C@H]2[C@H](O)/C=C/C(=O)O1	> 100 µM	> 100 µM
CC1=C(C)C(=O)O[C@@H]([C@](C)(O)[C@]2(O)CC[C@@]3(O)[C@@H]4C[C@H]5O[C@]56CC=CC(=O)[C@]6(C)[C@H]4CC[C@]23C)C1	0.0398 µM	0.176 µM
CNC(=O)c1ccc(-c2cnc3ncc(Cc4ccc5ncccc5c4)n3n2)cc1F	> 100 µM	> 100 µM
COc1ccc2c(-c3cc4ccccc4o3)cc(=O)oc2c1		> 100 µM
O=C(Nc1cc(-c2ccccc2)[nH]n1)c1ccc(Cl)cc1	> 100 µM	> 100 µM
CCCSc1cc(Cl)nc(N)n1	> 100 µM	> 100 µM
CN1CCN(Cc2ccc(NC(=O)c3ccc(C(C)(C)C)c(C#Cc4cnc5cccnn45)c3)cc2C(F)(F)F)CC1	1.8 µM	3.43 µM
C=CCOc1c(Br)cc(Br)cc1Br	22.2 µM	56.9 µM
CC(=O)n1c(-c2ccc(Cl)cc2)nc2c(c1=O)C(c1ccc(Cl)cc1)c1sc3c(Cl)cccc3c1O2 (stereo unspecified)	0.364 µM	1.57 µM
COc1cc(/C=C2\CC3C4CC=C5CC(N6CCCC6)CC[C@]5(C)C4CC[C@]3(C)C2OC(C)=O)ccc1OCCN1CCCC1 (stereo partly specified)	3.61 µM	12.9 µM
CN(C)CCNC(=O)Nc1c(C#N)[n+]([O-])c2cc(Cl)c(Cl)cc2[n+]1[O-]	16.1 µM	46.3 µM
CS(=O)(=O)Nc1ccc(-c2ccc3c(NC(=O)C4CC4)n[nH]c3c2)cc1	> 25 µM	> 25 µM
COCC(=O)OC1CCn2c1nc1c2C(=O)C(C)=C(NC(C)=O)C1=O (stereo unspecified)	8.72 µM	29.9 µM
COc1ccc(C2C(C#N)=C(N)OC3=C2CCCc2ccc(F)cc23)cc1OC (stereo unspecified)	38.5 µM	> 95.8 µM
COc1ccc2c(c1)C=CC(C#N)N2C(=O)c1ccccc1 (stereo unspecified)	< 0.01 µM	< 0.048 µM
